The values below come from patent US8623196B2 (priority 2007, dated 2014).

Each structure is given as a SMILES string. Values joined by “and” are separate entries in the source; they are usually repeats but may differ in a detail not shown here. Equal values may be shown once.

For assay [1], the target named is NEST (recombinant esterase domain of NTE) (Homo sapiens, UniProt Q8IY17). The format is biochemical.
Assay [2] relates to acetylcholinesterase. In words: Bi-enzyme electrode of tyrosinase and acetylcholinesterase: current response to substrate. Particulars: for Average sensitivity: tyrosinase/acetylcholinesterase electrode. The format is biochemical.
Assay [3] concerns tyrosinase. The format is biochemical. Particulars: for Average sensitivity (control experiments): PLL-Tyr bilayers without an esterase layer.
The test system of assay [4] is Alkaline phosphatase. As to the kind of experiment: Bi-enzyme electrode of tyrosinase and alkaline phosphatase: current response to substrate. The format is biochemical. Conditions: Table 1-2 lower part.
For assay [5], the target named is T1, NEST (Homo sapiens, UniProt Q8IY17).
T1 construct: recombinant esterase domain of NTE (NEST) of the present invention comprising amino acid residues 727-1216 of NTE; histidine tag; made in house; host or cells: E. coli BL21(DE3), pET-21b vector
T1 sequence (Q8IY17 775-1264): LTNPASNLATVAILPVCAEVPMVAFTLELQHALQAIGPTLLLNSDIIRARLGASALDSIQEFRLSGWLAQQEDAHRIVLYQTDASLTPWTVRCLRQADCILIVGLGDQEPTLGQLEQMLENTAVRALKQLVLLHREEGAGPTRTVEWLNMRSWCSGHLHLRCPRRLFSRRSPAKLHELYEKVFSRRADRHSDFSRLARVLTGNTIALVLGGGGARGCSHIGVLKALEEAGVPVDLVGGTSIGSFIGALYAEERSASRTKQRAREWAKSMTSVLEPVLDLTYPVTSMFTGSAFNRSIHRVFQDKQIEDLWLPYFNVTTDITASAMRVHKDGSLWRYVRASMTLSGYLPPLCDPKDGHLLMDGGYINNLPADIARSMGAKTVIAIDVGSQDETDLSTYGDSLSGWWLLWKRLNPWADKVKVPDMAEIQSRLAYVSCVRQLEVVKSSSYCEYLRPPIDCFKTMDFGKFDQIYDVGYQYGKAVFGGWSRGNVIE
In words: NEST biosensor: amperometric response to phenyl valerate. The assay is classed as biochemical. Conditions: for Average sensitivity: tyrosinase/NEST electrode.

In assay [6] the test system is butyrylcholinesterase. In words: Bi-enzyme electrode of tyrosinase and butyrylcholinesterase: current response to substrate. The format is biochemical.
Assay [7] relates to tyrosinase. The format is biochemical. Conditions: NEST biosensor, 0.1 M phosphate buffer pH 7.0, −0.1 V.
The target of assay [8] is tyrosinase (Agaricus bisporus, UniProt C7FF04). Particulars: read-out: apparent Michaelis constant Km^app; cited from earlier work.
Chain of tyrosinase (Agaricus bisporus, UniProt C7FF04) (C7FF04 1-392): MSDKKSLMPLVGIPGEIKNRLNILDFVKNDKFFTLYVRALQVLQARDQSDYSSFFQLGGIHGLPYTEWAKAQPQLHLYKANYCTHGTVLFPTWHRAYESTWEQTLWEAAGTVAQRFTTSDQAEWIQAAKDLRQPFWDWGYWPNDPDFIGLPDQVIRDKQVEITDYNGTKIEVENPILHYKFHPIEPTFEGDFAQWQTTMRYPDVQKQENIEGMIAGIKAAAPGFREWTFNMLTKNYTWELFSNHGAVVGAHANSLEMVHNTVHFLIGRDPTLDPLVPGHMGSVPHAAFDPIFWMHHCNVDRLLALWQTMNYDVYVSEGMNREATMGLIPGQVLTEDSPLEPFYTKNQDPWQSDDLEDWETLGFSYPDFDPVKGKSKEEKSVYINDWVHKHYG

Take `O=S(=O)(F)Cc1ccccc1` [PMSF, phenylmethylsulfonyl fluoride]: the “drop in current after addition of NEST inhibitor (dose dependence)” value in assay [1] is “dose-dependent response”.

In the case of `CC(=O)Oc1ccccc1` [Phenyl acetate, phenyl acetate], the Average sensitivity is 180 ± 8 nAμM^−1cm^−2 in assay [2] (Table 1-2 lower part) and 180 ± 25 nAμM^−1cm^−2 in assay [2] (Table 1-2 upper part). Besides, the “Average sensitivity (control experiments)” value in assay [3] is 0.4 nAμM^−1cm^−2.

In the case of `O=P(O)(O)Oc1ccccc1` [Phenyl phosphate], the Average sensitivity in assay [4] was 236 ± 10 nAμM^−1cm^−2. Besides, the “Average sensitivity (control experiments)” value in assay [3] amounted to 0.3 nAμM^−1cm^−2.

Consider `CCCCC(=O)Oc1ccccc1` [Phenyl valerate, phenyl valerate], for which, in assay [5] (0.1 M phosphate buffer, pH 7.0, −0.1 V vs Ag/AgCl), the “concentration at which response reached saturation” value is “approximately 30 μM”. The Average sensitivity in assay [5] (Table 1-2 lower part) came to 88 ± 6 nAμM^−1cm^−2; in assay [5] (Table 1-2 upper part), 87 ± 8 nAμM^−1cm^−2; in assay [6] (Table 1-2 lower part), 70 ± 5 nAμM^−1cm^−2; in assay [6] (Table 1-2 upper part), 25 ± 10 nAμM^−1cm^−2. In assay [5] (phenyl valerate 4 μM, n=10 electrodes), the mean current result is “approximately 348 nA cm^−2”. Moreover, the limit of detection in assay [5] (signal-to-noise ratio of three) turned out to be 0.5 µM. The “rise in current with substrate” value in assay [2] (used as substrate instead of phenyl acetate) was “no significant rise in current”. For the same compound, the “Average sensitivity (control experiments)” value in assay [3] was 0.5 nAμM^−1cm^−2 and 0.3 nAμM^−1cm^−2. Also, in assay [3] (electrode with poly-L-lysine and tyrosinase bilayers without NEST), the “rise in steady state current on addition of substrate” value was “relatively very small rise in steady state current”.

One may read the Km as the substrate concentration at which the rate is half of its maximum. Take `Oc1ccccc1O` [catechol]: the sensitivity in assay [7] worked out at 2.5±0.1 μAμM^−1 cm^−2. The Km in assay [8] is around 220 µM.

Compound `Oc1ccccc1` [phenol] showed an Average sensitivity in assay [7] of around 410±30 nAμM^−1 cm^−2. Besides, the Km in assay [8] is around 250 µM.
